Columns and labels:
Experiment in all cases: relative viability (nuclei count vs DMSO), 5 days (fraction); higher = more cells survive
SW 1573 = test system: SW 1573
In short: (§1)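 Values are medians from duplicate plates. Each reflects relative viability, defined as the nuclei count of treated wells over that of vehicle wells. Lung cancer cell lines in 1536-well plates were pin-tool dosed one day after seeding with one drug alone or with a fixed anchor-drug dose plus five library-drug doses (not always all listed) in √10 steps, then fixed, stained and imaged at 4× after 5 days.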

NCI-H1793 = test system: NCI-H1793
In short: as §1

NCI-H596 = test system: NCI-H596
In short: as §1

NCI-H1650 = test system: NCI-H1650
In short: as §1

LC-2-ad = test system: LC-2-ad
In short: as §1

SW 900 = test system: SW 900
In short: as §1

NCI-H2347 = test system: NCI-H2347
In short: as §1

A-427 = test system: A-427
In short: as §1

COR-L23 = test system: COR-L23
In short: as §1

LK-2 = test system: LK-2
In short: as §1

HCC-44 = test system: HCC-44
In short: as §1

LCLC-103H = test system: LCLC-103H
In short: as §1

PC-14 = test system: PC-14
In short: as §1

NCI-H460 = test system: NCI-H460
In short: as §1

LCLC-97TM1 = test system: LCLC-97TM1
In short: as §1

NCI-H23 = test system: NCI-H23
In short: as §1

201T = test system: 201T
In short: as §1

LU99A = test system: LU99A
In short: as §1

H3255 = test system: H3255
In short: as §1

NCI-H1563 = test system: NCI-H1563
In short: as §1

PC-3 [JPC-3] = test system: PC-3 [JPC-3]
In short: as §1

NCI-H2228 = test system: NCI-H2228
In short: as §1

Compound: O=c1cc(-c2cccc3c2Sc2ccccc2S3)oc(N2CCOCC2)c1 + Nc1nc2[nH]cc(CCc3ccc(C(=O)N[C@@H](CCC(=O)O)C(=O)O)cc3)c2c(=O)[nH]1 [Pemetrexed] (partner 0.2 µM)
- relative viability (SW 1573; first compound 0.08 µM): 0.754
- relative viability (SW 1573; first compound 0.253 µM): 1.11
- relative viability (SW 1573; first compound 0.8 µM): 0.865
- relative viability (SW 1573; first compound 2.53 µM): 0.838
- relative viability (SW 1573; first compound 8 µM): 0.924
- relative viability (NCI-H1793; first compound 0.08 µM): 0.728
- relative viability (NCI-H1793; first compound 0.253 µM): 1.04
- relative viability (NCI-H1793; first compound 0.8 µM): 0.798
- relative viability (NCI-H1793; first compound 2.53 µM): 0.679
- relative viability (NCI-H1793; first compound 8 µM): 1.2
- relative viability (NCI-H596; first compound 0.08 µM): 0.422
- relative viability (NCI-H596; first compound 0.253 µM): 0.52
- relative viability (NCI-H596; first compound 0.8 µM): 0.536
- relative viability (NCI-H596; first compound 2.53 µM): 0.543
- relative viability (NCI-H596; first compound 8 µM): 0.478
- relative viability (NCI-H1650; first compound 0.08 µM): 0.362
- relative viability (NCI-H1650; first compound 0.253 µM): 0.366
- relative viability (NCI-H1650; first compound 0.8 µM): 0.407
- relative viability (NCI-H1650; first compound 2.53 µM): 0.415
- relative viability (NCI-H1650; first compound 8 µM): 0.36
- relative viability (LC-2-ad; first compound 0.08 µM): 0.284
- relative viability (LC-2-ad; first compound 0.253 µM): 0.252
- relative viability (LC-2-ad; first compound 0.8 µM): 0.285
- relative viability (LC-2-ad; first compound 2.53 µM): 0.271
- relative viability (LC-2-ad; first compound 8 µM): 0.27
- relative viability (SW 900; first compound 0.253 µM): 0.492
- relative viability (SW 900; first compound 0.8 µM): 0.495
- relative viability (SW 900; first compound 2.53 µM): 0.439
- relative viability (SW 900; first compound 8 µM): 0.438
- relative viability (NCI-H2347; first compound 0.08 µM): 0.386
- relative viability (NCI-H2347; first compound 0.253 µM): 0.458
- relative viability (NCI-H2347; first compound 0.8 µM): 0.465
- relative viability (NCI-H2347; first compound 2.53 µM): 0.424
- relative viability (NCI-H2347; first compound 8 µM): 0.435
- relative viability (A-427; first compound 0.08 µM): 0.808
- relative viability (A-427; first compound 0.253 µM): 1
- relative viability (A-427; first compound 0.8 µM): 0.991
- relative viability (A-427; first compound 2.53 µM): 0.92
- relative viability (A-427; first compound 8 µM): 0.993
- relative viability (COR-L23; first compound 0.08 µM): 0.194
- relative viability (COR-L23; first compound 0.253 µM): 0.215
- relative viability (COR-L23; first compound 0.8 µM): 0.215
- relative viability (COR-L23; first compound 2.53 µM): 0.195
- relative viability (COR-L23; first compound 8 µM): 0.197
- relative viability (LK-2; first compound 0.08 µM): 0.312
- relative viability (LK-2; first compound 0.253 µM): 0.297
- relative viability (LK-2; first compound 0.8 µM): 0.224
- relative viability (LK-2; first compound 2.53 µM): 0.256
- relative viability (LK-2; first compound 8 µM): 0.284
- relative viability (HCC-44; first compound 0.08 µM): 0.63
- relative viability (HCC-44; first compound 0.253 µM): 0.641
- relative viability (HCC-44; first compound 0.8 µM): 0.607
- relative viability (HCC-44; first compound 2.53 µM): 0.67
- relative viability (HCC-44; first compound 8 µM): 0.676
- relative viability (LCLC-103H; first compound 0.08 µM): 0.44
- relative viability (LCLC-103H; first compound 0.253 µM): 0.467
- relative viability (LCLC-103H; first compound 0.8 µM): 0.473
- relative viability (LCLC-103H; first compound 2.53 µM): 0.423
- relative viability (LCLC-103H; first compound 8 µM): 0.438
- relative viability (PC-14; first compound 0.08 µM): 0.138
- relative viability (PC-14; first compound 0.253 µM): 0.135
- relative viability (PC-14; first compound 0.8 µM): 0.132
- relative viability (PC-14; first compound 2.53 µM): 0.119
- relative viability (PC-14; first compound 8 µM): 0.12
- relative viability (NCI-H460; first compound 0.08 µM): 0.0549
- relative viability (NCI-H460; first compound 0.253 µM): 0.0572
- relative viability (NCI-H460; first compound 0.8 µM): 0.0622
- relative viability (NCI-H460; first compound 2.53 µM): 0.0639
- relative viability (NCI-H460; first compound 8 µM): 0.0685
- relative viability (LCLC-97TM1; first compound 0.08 µM): 0.175
- relative viability (LCLC-97TM1; first compound 0.253 µM): 0.169
- relative viability (LCLC-97TM1; first compound 0.8 µM): 0.18
- relative viability (LCLC-97TM1; first compound 2.53 µM): 0.177
- relative viability (LCLC-97TM1; first compound 8 µM): 0.175
- relative viability (NCI-H23; first compound 0.08 µM): 0.584
- relative viability (NCI-H23; first compound 0.253 µM): 0.902
- relative viability (NCI-H23; first compound 0.8 µM): 0.72
- relative viability (NCI-H23; first compound 2.53 µM): 0.518
- relative viability (NCI-H23; first compound 8 µM): 0.575
- relative viability (201T; first compound 0.08 µM): 0.302
- relative viability (201T; first compound 0.253 µM): 0.353
- relative viability (201T; first compound 0.8 µM): 0.37
- relative viability (201T; first compound 2.53 µM): 0.287
- relative viability (201T; first compound 8 µM): 0.302
- relative viability (LU99A; first compound 0.08 µM): 0.201
- relative viability (LU99A; first compound 0.253 µM): 0.169
- relative viability (LU99A; first compound 0.8 µM): 0.184
- relative viability (LU99A; first compound 2.53 µM): 0.324
- relative viability (LU99A; first compound 8 µM): 0.187
- relative viability (H3255; first compound 0.08 µM): 0.474
- relative viability (H3255; first compound 0.253 µM): 0.547
- relative viability (H3255; first compound 0.8 µM): 0.533
- relative viability (H3255; first compound 2.53 µM): 0.552
- relative viability (H3255; first compound 8 µM): 0.56
- relative viability (NCI-H1563; first compound 0.08 µM): 0.695
- relative viability (NCI-H1563; first compound 0.253 µM): 0.741
- relative viability (NCI-H1563; first compound 0.8 µM): 0.744
- relative viability (NCI-H1563; first compound 2.53 µM): 0.684
- relative viability (NCI-H1563; first compound 8 µM): 0.787
- relative viability (PC-3 [JPC-3]; first compound 0.08 µM): 0.721
- relative viability (PC-3 [JPC-3]; first compound 0.253 µM): 1.11
- relative viability (PC-3 [JPC-3]; first compound 0.8 µM): 1.3
- relative viability (PC-3 [JPC-3]; first compound 2.53 µM): 0.996
- relative viability (PC-3 [JPC-3]; first compound 8 µM): 1.08
- relative viability (NCI-H2228; first compound 0.08 µM): 0.351
- relative viability (NCI-H2228; first compound 0.253 µM): 0.359
- relative viability (NCI-H2228; first compound 0.8 µM): 0.336
- relative viability (NCI-H2228; first compound 2.53 µM): 0.355
- relative viability (NCI-H2228; first compound 8 µM): 0.473
